Data as given in ChEMBL document CHEMBL1201862, “PubChem BioAssay data set” (2004).
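Briefly, cells in 96-well plates were exposed to five compound concentrations for 48 h, and endpoints were estimated by linear interpolation. GI50 = concentration required for 50% inhibition of growth.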 The source made the active and inactive calls. Cut-off read from the data, not from the text of the source: active = GI50 up to about 1.1 µM and inactive = higher.

Tests used:
Experiment in all cases: NCI tumour cell line growth inhibition, 48 h
SK-MEL-2 = system: SK-MEL-2
NCI-H23 = system: NCI-H23
T47D = system: T47D
HCT-15 = system: HCT-15
DU-145 = system: DU-145
COLO 205 = system: COLO 205
SK-MEL-5 = system: SK-MEL-5
MDA-MB-231 = system: MDA-MB-231
NCI/ADR-RES = system: NCI/ADR-RES
MDA-MB-435 = system: MDA-MB-435
SF-268 = system: SF-268
ACHN = system: ACHN
MCF7 = system: MCF7
BT-549 = system: BT-549
NCI-H226 = system: NCI-H226
786-0 = system: 786-0
OVCAR-4 = system: OVCAR-4
SN12C = system: SN12C
OVCAR-5 = system: OVCAR-5
TK-10 = system: TK-10
HCT-116 = system: HCT-116
SR = system: SR
RPMI-8226 = system: RPMI-8226
HT-29 = system: HT-29
KM12 = system: KM12
SW-620 = system: SW-620
UO-31 = system: UO-31
SF-539 = system: SF-539
UACC-62 = system: UACC-62
UACC-257 = system: UACC-257
OVCAR-3 = system: OVCAR-3
OVCAR-8 = system: OVCAR-8
SK-OV-3 = system: SK-OV-3
RXF 393 = system: RXF 393
M14 = system: M14
A549 = system: A549
Malme-3M = system: Malme-3M
SNB-19 = system: SNB-19
LOX IMVI = system: LOX IMVI
HL-60 = system: HL-60
NCI-H460 = system: NCI-H460
SK-MEL-28 = system: SK-MEL-28
HOP-92 = system: HOP-92
CCRF-CEM = system: CCRF-CEM
HOP-62 = system: HOP-62
MDA-N = system: MDA-N
K562 = system: K562
U-251 = system: U-251
CAKI-1 = system: CAKI-1
SF-295 = system: SF-295
PC-3 = system: PC-3
MOLT-4 = system: MOLT-4
A498 = system: A498
IGROV-1 = system: IGROV-1
NCI-H522 = system: NCI-H522
SNB-75 = system: SNB-75
EKVX = system: EKVX

With OC1c2ccccc2C(O)C2OC12 (stereo not given) the GI50 (SK-MEL-2) was > 100 µM (inactive), the GI50 (NCI-H23) was > 100 µM (inactive) and the GI50 (T47D) was > 100 µM (inactive). For the same compound, the GI50 (HCT-15) was > 100 µM, the GI50 (DU-145) was > 100 µM (inactive) and the GI50 (COLO 205) was > 100 µM (inactive). For the same compound, the GI50 (SK-MEL-5) was > 100 µM (inactive), the GI50 (MDA-MB-231) was > 100 µM (inactive) and the GI50 (NCI/ADR-RES) was > 100 µM (inactive). The GI50 (MDA-MB-435) was > 100 µM (inactive), the GI50 (SF-268) was > 100 µM (inactive) and the GI50 (ACHN) was > 100 µM (inactive). For the same compound, the GI50 (MCF7) was > 100 µM (inactive), the GI50 (BT-549) was > 100 µM (inactive) and the GI50 (NCI-H226) was 78.5 µM (inactive). The GI50 (786-0) was > 100 µM (inactive), the GI50 (OVCAR-4) was > 100 µM (inactive) and the GI50 (SN12C) was > 100 µM (inactive). For the same compound, the GI50 (OVCAR-5) was > 100 µM (inactive), the GI50 (TK-10) was > 100 µM (inactive) and the GI50 (HCT-116) was > 100 µM (inactive). The GI50 (SR) was > 100 µM (inactive), the GI50 (RPMI-8226) was > 100 µM (inactive) and the GI50 (HT-29) was > 100 µM (inactive). For the same compound, the GI50 (KM12) was > 100 µM (inactive), the GI50 (SW-620) was > 100 µM (inactive) and the GI50 (UO-31) was > 100 µM (inactive). For the same compound, the GI50 (SF-539) was > 100 µM (inactive), the GI50 (UACC-62) was > 100 µM (inactive) and the GI50 (UACC-257) was > 100 µM (inactive). For the same compound, the GI50 (OVCAR-3) was > 100 µM (inactive), the GI50 (OVCAR-8) was > 100 µM (inactive) and the GI50 (SK-OV-3) was > 100 µM (inactive). For the same compound, the GI50 (RXF 393) was > 100 µM (inactive), the GI50 (M14) was > 100 µM (inactive) and the GI50 (A549) was > 100 µM (inactive). The GI50 (Malme-3M) was > 100 µM (inactive), the GI50 (SNB-19) was > 100 µM (inactive) and the GI50 (LOX IMVI) was > 100 µM (inactive). For the same compound, the GI50 (HL-60) was > 100 µM (inactive), the GI50 (NCI-H460) was > 100 µM (inactive) and the GI50 (SK-MEL-28) was > 100 µM (inactive). The GI50 (HOP-92) was > 100 µM (inactive), the GI50 (CCRF-CEM) was > 100 µM (inactive) and the GI50 (HOP-62) was > 100 µM (inactive). For the same compound, the GI50 (MDA-N) was > 100 µM (inactive), the GI50 (K562) was > 100 µM (inactive) and the GI50 (U-251) was > 100 µM (inactive). For the same compound, the GI50 (CAKI-1) was > 100 µM (inactive), the GI50 (SF-295) was > 100 µM (inactive) and the GI50 (PC-3) was > 100 µM (inactive). For the same compound, the GI50 (MOLT-4) was > 100 µM (inactive), the GI50 (A498) was > 100 µM (inactive) and the GI50 (IGROV-1) was > 100 µM (inactive). The GI50 (NCI-H522) was > 100 µM (inactive).

CC(=O)[C@@]1(c2ccccc2)CC2(CCN(C)CC2)O[C@H]1C was tested, and the GI50 (NCI-H23) was > 100 µM (inactive), the GI50 (T47D) was > 100 µM (inactive) and the GI50 (HCT-15) was > 100 µM. The GI50 (DU-145) was > 100 µM (inactive), the GI50 (COLO 205) was > 100 µM (inactive) and the GI50 (SNB-75) was > 100 µM (inactive). For the same compound, the GI50 (SK-MEL-5) was > 100 µM (inactive), the GI50 (MDA-MB-231) was > 100 µM (inactive) and the GI50 (NCI/ADR-RES) was > 100 µM (inactive). For the same compound, the GI50 (MDA-MB-435) was > 100 µM (inactive), the GI50 (SF-268) was > 100 µM (inactive) and the GI50 (ACHN) was > 100 µM (inactive). For the same compound, the GI50 (BT-549) was > 100 µM (inactive), the GI50 (NCI-H226) was > 100 µM (inactive) and the GI50 (786-0) was > 100 µM (inactive). The GI50 (OVCAR-4) was > 100 µM (inactive), the GI50 (SN12C) was > 100 µM (inactive) and the GI50 (OVCAR-5) was > 100 µM (inactive). The GI50 (TK-10) was > 100 µM (inactive), the GI50 (HCT-116) was > 100 µM (inactive) and the GI50 (RPMI-8226) was > 100 µM (inactive). For the same compound, the GI50 (HT-29) was > 100 µM (inactive), the GI50 (KM12) was > 100 µM (inactive) and the GI50 (SW-620) was > 100 µM (inactive). The GI50 (UO-31) was > 100 µM (inactive), the GI50 (SF-539) was > 100 µM (inactive) and the GI50 (UACC-257) was > 100 µM (inactive). For the same compound, the GI50 (OVCAR-3) was > 100 µM (inactive), the GI50 (OVCAR-8) was > 100 µM (inactive) and the GI50 (SK-OV-3) was > 100 µM (inactive). For the same compound, the GI50 (RXF 393) was > 100 µM (inactive), the GI50 (M14) was > 100 µM (inactive) and the GI50 (A549) was > 100 µM (inactive). The GI50 (Malme-3M) was > 100 µM (inactive), the GI50 (SNB-19) was > 100 µM (inactive) and the GI50 (LOX IMVI) was > 100 µM (inactive). For the same compound, the GI50 (NCI-H460) was > 100 µM (inactive), the GI50 (EKVX) was > 100 µM (inactive) and the GI50 (SK-MEL-28) was > 100 µM (inactive). For the same compound, the GI50 (HOP-92) was > 100 µM (inactive), the GI50 (HOP-62) was > 100 µM (inactive) and the GI50 (MDA-N) was > 100 µM (inactive). For the same compound, the GI50 (K562) was > 100 µM (inactive), the GI50 (U-251) was > 100 µM (inactive) and the GI50 (CAKI-1) was > 100 µM (inactive). For the same compound, the GI50 (SF-295) was > 100 µM (inactive), the GI50 (MOLT-4) was > 100 µM (inactive) and the GI50 (A498) was > 100 µM (inactive). For the same compound, the GI50 (IGROV-1) was > 100 µM (inactive) and the GI50 (NCI-H522) was > 100 µM (inactive).
